Read-outs that look alike come from different tables or passages of the source.
Key:
[1] = morphine antagonist rat tail flick test; format: in vivo; conditions: subcutaneous; for ED50: sc
Excerpt: (§1) Table 2 compares the oxymorphone and morphine antagonist activity of two of the preferred embodiments of this invention with the antagonist activity of butorphanol, in the standard oxymorphone-induced Straub tail test and the morphine antagonist rat tail flick test. In the Straub tail test, subcutaneously, BL-5951 and BL-5961 were about 5 times and about 1.6 times, respectively, as potent as butorphanol. Orally, they were about 55 times and about 1.7 times, respectively, as potent as butorphanol.

[2] = oxymorphone-induced Straub tail test (oxymorphone antagonist activity); format: in vivo; conditions: for antagonist potency relative to butorphanol, Straub tail test: vs butorphanol
Excerpt: as §1

[3] = format: in vivo; conditions: subcutaneous
[4] = format: in vivo; conditions: for agonist potency relative to butorphanol / agonist potency relative to morphine sulfate: mice; for agonist potency relative to butorphanol: vs butorphanol; for agonist potency relative to morphine sulfate: vs morphine sulfate
[5] = oral, read-out: Antagonist Activity ED50, Oxymorphone-induced Straub Tail, PO
[6] = sc, subcutaneous, read-out: Antagonist Activity ED50, Oxymorphone-induced Straub Tail, SC

Structure (SMILES)	ED50 [1]	antagonist potency relative to butorphanol, rat tail flick test ([1]; vs butorphanol)	antagonist potency relative to butorphanol, Straub tail test ([2]; oral)	ED50 [2, 5]	ED50 [2, 6]	antagonist potency relative to butorphanol, Straub tail test ([2]; subcutaneous)	agonist potency relative to butorphanol ([3]; rats, vs butorphanol)	agonist potency relative to morphine sulfate ([3]; rats, vs morphine sulfate)	Agonist Activity ED50, Rats (SC) [3]	antagonist potency relative to butorphanol, rat tail flick test (in words) ([1]; vs butorphanol)	agonist potency relative to butorphanol ([4]; oral)	agonist potency relative to morphine sulfate ([4]; oral)	agonist potency relative to butorphanol ([4]; subcutaneous)	agonist potency relative to morphine sulfate ([4]; subcutaneous)	Agonist Activity ED50, Mice (PO) ([4]; oral)	Agonist Activity ED50, Mice (SC) ([4]; subcutaneous)
Oc1ccc2c(c1)[C@]13CCN(CC4CC4)[C@H](C2)[C@]1(O)CCOC3 (racemic) [BL-5951, 17-Cyclopropylmethyl-3,14β-dihydroxy-6-oxamorphinan]	~0.09 mg/kg	about 4.8 times	about 55 times	~1 mg/kg	~0.2 mg/kg	about 5 times	–	–	–	–	–	–	–	–	–	–
Oc1ccc2c(c1)[C@]13CCN(CC4CCC4)[C@H](C2)[C@]1(O)CCOC3 (racemic) [BL-5961, 17-Cyclobutylmethyl-3,14β-dihydroxy-6-oxamorphinan]	~0.4 mg/kg	–	about 1.7 times	~32 mg/kg	0.61 mg/kg	about 1.6 times	about equipotent	about 4 times	0.041 mg/kg	about equipotent	about 2.5 times	about 1.4 times	about 1.4 times	about 7 times	2.2 mg/kg	0.037 mg/kg
CN1CC[C@]23COC(C)(C)C[C@@]2(O)[C@H]1Cc1ccc(O)cc13 (racemic) [BL-6021, 3,14β-Dihydroxy-7,7,17-trimethyl-6-oxamorphinan]	–	–	–	–	–	–	–	–	–	–	–	–	about 1.4 times	about 7 times	–	0.037 mg/kg
Oc1ccc2c(c1)[C@@]13CCCC[C@@]1(O)[C@@H](C2)N(CC1CCC1)CC3 [butorphanol, reference compound]	0.43 mg/kg	–	–	55 mg/kg	0.98 mg/kg	–	–	–	0.040 mg/kg	–	–	–	–	–	5.6 mg/kg	0.051 mg/kg

— US4228285A, “14-Hydroxy-6-oxamorphinans and 14-hydroxy-6-oxaisomorphinans” (priority 1979, dated 1980)
